Molecules are shown by their SMILES.

Experiment [1] concerns the target T1, OaIseP (isethionate-specific TRAP substrate-binding protein IseP) (Oleidesulfovibrio alaskensis, UniProt Q312S0). Also noted: gene dctP; without the native signal peptide; N-terminal His-tag removed with HRV 3C protease; DSF thermal shift with SYPRO Orange, PM4A Biolog compound screen, change of derivative melting temperature. The note with it: PM4A Biolog screen, compound concentration not disclosed; binder.
Target sequence in this assay (Q312S0 24-336): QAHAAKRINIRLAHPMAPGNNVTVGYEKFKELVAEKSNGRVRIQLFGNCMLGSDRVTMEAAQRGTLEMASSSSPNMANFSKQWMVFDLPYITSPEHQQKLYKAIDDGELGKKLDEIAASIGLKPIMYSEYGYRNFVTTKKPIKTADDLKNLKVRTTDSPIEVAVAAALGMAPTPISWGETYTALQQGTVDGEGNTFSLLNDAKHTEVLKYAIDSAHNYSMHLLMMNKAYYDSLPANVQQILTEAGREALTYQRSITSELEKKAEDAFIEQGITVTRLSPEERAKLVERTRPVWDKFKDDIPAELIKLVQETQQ

Experiment [2] deals with T1, OaIseP (isethionate-specific TRAP substrate-binding protein IseP). The experiment in a line: X-ray crystal structure ([…] Å), open conformation; no significant DSF shift at […]. Also noted: gene dctP.
Target sequence in this assay (Q312S0 24-336 limits assumed): as the sequence (Q312S0 24-336) above
Experiment [3] has the same target. The experiment is described as above. Also noted: gene dctP. The source holds these as a separate data set.
Target sequence in this assay (Q312S0 24-336 limits assumed): as the sequence (Q312S0 24-336) above
Experiment [4] shares this target. Put plainly: biochemical. Also noted: gene dctP.
Target sequence in this assay (Q312S0 24-336 limits assumed): as the sequence (Q312S0 24-336) above

Regarding `N[C@H](Cc1ccc(OP(=O)(O)O)cc1)C(=O)O` [O-phospho-D-tyrosine], in experiment [1], the “ΔTmD (°C)” value came to 0.87 ± 0.11 °C.
Same read-out and setting: next, `N[C@@H](Cc1ccc(OP(=O)(O)O)cc1)C(=O)O` [O-phospho-L-tyrosine]: -0.73 ± 0.33 °C.
`O=S(=O)(O)CCN1CCOCC1` [MES, 2-(N-morpholino)ethanesulfonic acid]: the “X-ray crystal structure (1.65 Å), open conformation; no significant DSF shift at” value in experiment [2] is “In both HEPES- and MES-bound structures, the sulfonate groups form a salt bridge to Arg177”.
For the compound `O=C(O)COP(=O)(O)O` [phospho-glycolic acid], the “ΔTmD (°C)” value in experiment [1] amounted to 0.31 ± 0.21 °C.
On to `O=P(O)(O)OC(CO)CO` [b-glycerol phosphate], for which the “ΔTmD (°C)” value in experiment [1] is -0.30 ± 0.29 °C.
Same read-out and setting: as for `C[C@@H](OP(=O)(O)O)[C@H](N)C(=O)O` [O-phospho-L-threonine], the figure is -0.62 ± 0.28 °C.
`N[C@@H](CS(=O)(=O)O)C(=O)O` [L-cysteic acid]: the “ΔTmD (°C)” value in experiment [1] was found to be 0.11 ± 0.28 °C.
With `O=S(=O)(O)CCN1CCN(CCO)CC1` [HEPES, 4-(2-hydroxyethyl)-1-piperazineethanesulfonic acid], the “X-ray crystal structure (1.89 Å), open conformation; no significant DSF shift at” value in experiment [3] is “we were able to confidently model HEPES and MES buffer constituents from the crystallisation conditions into the densities”.
With `O=S(=O)(O)CCO` [isethionate, 2-hydroxyethane sulfonate], in experiment [4], the Kd is 950 nM. In experiment [1], the “ΔTmD (°C)” value amounted to 6.52 ± 0.18 °C.
For the compound `CC(=O)N[C@@H](CS)C(=O)O` [N-acetyl-L-cysteine], in experiment [1], the “ΔTmD (°C)” value is -0.64 ± 0.24 °C.
`NC(=O)CCCCC1CCSS1` (racemic) [DL-lipoamide]: the “ΔTmD (°C)” value in experiment [1] was determined as 0.60 ± 0.38 °C.
On to `N[C@H](COP(=O)(O)O)C(=O)O` [O-phospho-D-serine], for which, in experiment [1], the “ΔTmD (°C)” value worked out at 0.05 ± 0.42 °C.
On the same count and under the same terms, as for `CSC[C@H](N)C(=O)O` [S-methyl-L-cysteine], the figure is -0.41 ± 0.48 °C; as for `NC(N)=S` [thiourea], -0.73 ± 0.31 °C.
In the case of `N[C@@H](CS)C(=O)O` [L-cysteine], the “ΔTmD (°C)” value in experiment [1] was -0.68 ± 0.11 °C.
On the same count and under the same terms, as for `O=P(O)(O)OC1O[C@H](CO)[C@@H](O)[C@H](O)[C@@H]1O` (stereo partly drawn) [D-mannose-1-phosphate], the figure is 0.69 ± 0.31 °C; as for `O=C[C@H](O)[C@@H](O)[C@H](O)[C@H](O)COP(=O)(O)O` [D-glucose-6-phosphate], -0.85 ± 0.37 °C.
The same measure, in the same setting: next, `NCCS(=O)O` [hypotaurine]: -0.68 ± 0.46 °C; `O=S1(=O)CCCC1` [tetramethylene sulfone]: 0.23 ± 0.11 °C.
For the compound `N[C@@H](CCSC[C@H](N)C(=O)O)C(=O)O` [cystathionine], in experiment [1], the “ΔTmD (°C)” value was 0.61 ± 0.21 °C.
On the same count and under the same terms, as for `N[C@H](CS)C(=O)O` [D-cysteine], the figure is 1.14 ± 0.17 °C; as for `O=P(O)(O)O[C@H]1O[C@H](CO)[C@@H](O)[C@H](O)[C@H]1O` [D-glucose-1-phosphate], 0.92 ± 0.26 °C; as for `O=P(O)(O)O[C@H]1[C@H](OP(=O)(O)O)[C@@H](OP(=O)(O)O)[C@H](OP(=O)(O)O)[C@@H](OP(=O)(O)O)[C@H]1OP(=O)(O)O` [inositol hexaphosphate], 0.46 ± 0.33 °C.
Consider `C[S+]([O-])CC[C@H](N)C(=O)O` (stereo partly drawn) [L-methionine sulfoxide], for which the “ΔTmD (°C)” value in experiment [1] is 0.29 ± 0.11 °C.
On to `N[C@@H](CSC[C@H](N)C(=O)O)C(=O)O` [lanthionine], for which the “ΔTmD (°C)” value in experiment [1] was -0.46 ± 0.10 °C.
For `CSCC[C@@H](N)C(=O)O` [D-methionine], the “ΔTmD (°C)” value in experiment [1] is -0.62 ± 0.38 °C.
Same read-out and setting: next, `CS(=O)(=O)CC[C@H](N)C(=O)O` [L-methionine sulfone]: 0.44 ± 0.13 °C; `CCCCS(=O)(=O)O` [butane sulfonate]: 0.41 ± 0.46 °C; `CS(=O)(=O)O` [methane sulfonic acid]: 0.23 ± 0.28 °C.
On the same count and under the same terms, as for `CN(CC(=O)O)C(=N)NP(=O)(O)O` [phospho-creatine], the figure is 0.41 ± 0.40 °C.
The same measure, in the same setting: next, `N[C@@H](CSCSC[C@H](N)C(=O)O)C(=O)O` [L-djenkolic acid]: -0.32 ± 0.28 °C; `N[C@@H](CS)C(=O)NCC(=O)O` [Cys-Gly]: 1.14 ± 0.17 °C.
As for `N[C@@H](CCC(=O)N[C@@H](CS)C(=O)NCC(=O)O)C(=O)O` [glutathione], the “ΔTmD (°C)” value in experiment [1] is -0.67 ± 0.37 °C.
As to `CSCC[C@H](N)C(=O)O` [L-methionine], the “ΔTmD (°C)” value in experiment [1] is -0.92 ± 0.37 °C.
Same read-out and setting: as for `N[C@@H](CS(=O)O)C(=O)O` [L-cysteine sulfinate], the figure is 0.53 ± 0.00 °C; as for `NCCS` [cysteamine], 0.35 ± 0.00 °C; as for `CSCC[C@H](NC(=O)CN)C(=O)O` [Gly-Met], -0.01 ± 0.18 °C.
With `NC(=O)OP(=O)(O)O` [carbamoyl phosphate], the “ΔTmD (°C)” value in experiment [1] is -0.49 ± 0.28 °C.
Consider `O=P(O)(O)OC[C@H]1OC(O)[C@@H](O)[C@@H](O)[C@@H]1O` (stereo partly drawn) [D-mannose-6-phosphate], for which the “ΔTmD (°C)” value in experiment [1] was -0.09 ± 0.47 °C.
As for `C=C(OP(=O)(O)O)C(=O)O` [phosphoenolpyruvate], the “ΔTmD (°C)” value in experiment [1] is -0.63 ± 0.24 °C.

By Kd is commonly meant the constant that tells how readily two partners part at equilibrium.

Source of the values: paper PMC11668362, “On the function of TRAP substrate-binding proteins: the isethionate-specific binding protein IseP” (Biochemical Journal, 2024).
